Measurements from patent publication US20190328721A1, “METHOD OF ACTIVATING DENDRITIC CELLS” (KOREA INSTITUTE OF SCIENCE AND TECHNOLOGY, priority 2018, published 2019).

Columns and labels:
[1] = tested on: bone marrow-derived macrophages (BMDMs); assay: Phagocytosis of cancer cells by bone marrow-derived macrophages in vitro; assay type: cell-based, mice
Protocol: Specifically, the present inventors prepared bone marrow-derived macrophages (BMDMs) differentiated from excised bone marrow of mice using M-CSF and bone marrow-derived dendritic cells (BMDCs) differentiated from excised bone marrow using Flt3L. The degree of differentiation was confirmed by flow cytometry analysis using antibodies specifically binding to F4/80 (BMDM marker) and CD11c (BMDC marker), respectively (FIGS. 2A and 2B).
The prepared BMDMs and BMDCs were stained with 1 μM CellTracker Deep Red (Thermo Fisher Scientific, USA). 30 μM of Y27632 (Abcam, USA) or 30 μM of fasudil (Selleck Chemicals, USA) was added to each of 15×10^4 cells/ml of the stained macrophages and dendritic cells and incubated at 37° C. for 1 hour. As a negative control, macrophages or dendritic cells that were not incubated with Y27632 and fasudil were used.
Bone marrow-derived macrophages or dendritic cells prepared in RPMI medium and cancer cell lines stained with 1 μM CellTracker CMFDA (Thermo Fisher Scientific, USA) were co-cultured at about 37° C. for about 2 hours. CT26.CL25, a colon cancer cell line, and B16F10-OVA, a melanoma cell line, were used as the cancer cells.
Thereafter, the percentage of cancer cells was measured by flow cytometry, and the phagocytosis ratio of macrophages and dendritic cells against cancer cells was calculated. The results are shown in FIGS. 2C to 2F (left: cancer cell line CT26.CL25, right: cancer cell line B16F10-OVA).
In order to more accurately analyze the phagocytosis of macrophages and dendritic cells against cancer cells according to the treatment of the ROCK inhibitor, the present inventors analyzed phagocytosis of the BMDMs and BMDCs against CT26.CL25 colon cancer cells using the pHrodo-SE dye, which changes in fluorescence depending on pH. When […], the pH of the cancer cells decreased and became red. When treated with Y27632 as described above for the above-mentioned phagocytosis response, the phagocytic activities of both the BMDMs and BMDCs against cancer cells were improved.
The present inventors performed an experiment to confirm how long the phagocytosis of BMDMs and BMDCs against cancer cells due to the ROCK inhibitor is maintained. Specifically, BMDMs and BMDCs were pretreated with Y27632 for 1 hour, then Y27632 was removed, and immediately after 30 minutes, 1 hour, 2 hours, or 4 hours, the phagocytosis against CT26.CL25 and B16F10-Ova was measured using a flow cytometer. The other experimental conditions were the same as in Example 1-1.
In order to confirm whether the ROCK inhibitor increases phagocytosis against cancer cells by acting on phagocytic cells (BMDMs or BMDCs) themselves, Y27632 was used to pretreat the phagocytic cells or cancer cells for 1 hour, and the phagocytic activity was analyzed using the same procedure described in Example 1-1.
The present inventors identified through the above-mentioned results that Y27632 promotes phagocytic cells against cancer cells by inhibiting ROCK in the phagocytic cells. In order to elucidate a more detailed mechanism related to the increase of phagocytic activity by ROCK inhibitors, the present inventors analyzed phagocytosis of the phagocytic cells against cancer cells using blebbistatin (Sigma-Aldrich, USA), which can inhibit the movement of myosin light chain, which exist downstream of ROCK signaling pathway, according to the method described in Example 1-1.
Bone marrow-derived macrophages (BMDMs) treated with 30 μM of fasudil were co-cultured with B16F10-Ova malignant melanoma cells for 1 hour and the phagocytic activity of the BMDMs against apoptotic cancer cells was analyzed by flow cytometry analysis. In order to induce immunogenic apoptosis, 2.5 μM mitoxantrone (Sigma-Aldrich, USA) was administered with B16F10-Ova cells stained with CellTracker Deep Red (Thermo Fisher Scientific, USA) for 4 hours. […]

[2] = tested on: CT26.CL25 cells; assay: Anti-cancer immune memory (tumor removal and re-injection); assay type: in vivo, Balb/c wild-type mice; settings: 10 mg/kg intravenous; compared with PBS control
Protocol: To confirm whether the ROCK inhibitor induces anti-cancer immune memory, CT26.CL25 cells (1×10^6 cells) were injected into the right flank of Balb/c wild-type mice to induce cancer, and then 10 mg/kg of Y27632 was administered continuously for two consecutive days via intravenous injection, followed by a day of rest as a cycle, followed by 3 cycles of 3-day intervals. After 22nd days from the day of cancer injection, the induced tumor was removed by surgery. One week later, the same cancer cells (7×10^6 cells) were injected to the other flank and the growth of tumor was investigated (FIG. 12A).

[3] = tested on: OT-1 T cells; assay: Co-culture of OT-1 T cells with phagocytes isolated from B16F10-Ova-bearing mice (IFN-γ); assay type: in vivo
Protocol: In addition, the expression of IFN-γ in OT-1 T cells co-cultured with macrophages and dendritic cells isolated from the tumor-draining lymph nodes and the tumor tissues in the B16F10-Ova cancer model mice was assessed using IFN-γ ELISA kit (R&D Systems, Inc, USA). It was confirmed that the amount of IFN-γ was increased when the dendritic cells isolated from the tumor-draining lymph nodes and the tumor tissues were co-cultured with OT-1 T cells (FIG. 14D). However, there was no change in the amount of IFN-γ when macrophages and OT-1 T cells were co-cultured.
The present inventors investigated whether the combined administration of Y27632 and doxorubicin induces immunity enhancement through CD8 T cells. For this purpose, dendritic cells isolated from tumor-draining lymph nodes of B16F10-Ova-bearing cancer model mice were co-cultured with OT-1 T cells, and then the amount of IFN-γ was measured by IFN-γ ELISA kit (R&D Systems, USA). […] In addition, it was confirmed that the amount of IFN-γ-positive T cells increased when the dendritic cells derived from mice administered with the combined administration were co-cultured with OT-1 T cells (FIG. 18G).

[4] = tested on: CD103 DCs; assay: Phagocytosis of cancer cells by dendritic cells excised from tumor tissues; assay type: in vivo; settings: compared with CD103 DCs from control mice
Source text: The present inventors excised dendritic cells from tumor tissues and analyzed the phagocytosis of dendritic cells against cancer cells in vitro using the same method as described in Example 1-1.

[5] = from tumor-draining lymph nodes

## C[C@@H](N)[C@H]1CC[C@H](C(=O)Nc2ccncc2)CC1 [Y27632]
[1]; 30 μM, 1 hour, co-culture with CT26.CL25 or B16F10-OVA about 2 hours
  phagocytic ability of macrophages against cancer cells: significantly increased
[1]; CT26.CL25 colon cancer cells
  phagocytic activity of BMDMs against cancer cells (pHrodo-SE dye): improved
[1]; cancer cells pretreated for 1 hour
  phagocytosis by BMDMs against cancer cells, cancer cells pre-treated: not increased
[1]; phagocytic cells pretreated for 1 hour
  phagocytosis against cancer cells, BMDMs pretreated: increased
[1]; pretreated 1 hour, then removed, CT26.CL25 and B16F10-Ova
  time for which BMDMs maintain phagocytosis after the pretreatment: ≤ 1 h
[2]
  proportion of tumor-free mice after re-injection of cancer cells: significantly increased
[3]; dendritic cells from tumor-draining lymph nodes and tumor tissues
  amount of IFN-γ, dendritic cells co-cultured with OT-1 T cells: increased
[3]; dendritic cells from tumor-draining lymph nodes, doxorubicin study
  T cell priming (amount of IFN-γ), dendritic cells co-cultured with OT-1 T cells: increased
[3]; [5]
  proportion of IFN-γ-positive T cells, dendritic cells co-cultured: increased
  proportion of IFN-γ-positive T cells, macrophages co-cultured: did not affect
[3]; mouse, in vivo
  amount of IFN-γ, macrophages co-cultured with OT-1 T cells: no change
[4]
  phagocytosis against cancer cells of CD103 DCs isolated from treated mice: significantly enhanced
